Patent US8524692B2, “Ocular compositions containing dioleoylphosphatidylglycerol and uses thereof” (Georgia Health Sciences University Research Institute, Inc., priority 2010, dated 2013)

Key:
keratinocytes [1] = settings: cited from earlier work
keratinocytes [2] = assay: [3H]Thymidine incorporation into DNA in keratinocytes; format: cell-based; settings: for promotion of proliferation in slowly dividing keratinocytes / inhibition of proliferation in rapidly dividing keratinocytes: 24 hours, PG species prepared by bath sonication, compared with egg phosphatidylglycerol
Protocol: Keratinocytes were treated for 24 hours with the indicated concentrations of different phosphatidylglycerol species, prepared via bath sonication of phospholipid in serum-free keratinocyte medium. [^3H]Thymidine incorporation into DNA was then determined in duplicate and averaged. All data were transformed prior to analyses to improve assumptions of normality and additivity for the models to be used. Experiments were grouped that had different responses to egg phosphatidylglycerol using finite mixture regression models and the flexmix package in R (1). This method clusters each experiment by the regression fit between In(CPM) and In(concentration), grouping cultures with similar regression lines in the same cluster. The number of clusters was determined using the Bayesian information criterion (BIC). A mixed model analysis of variance was used, conducted using the Proc Mixed procedure in SAS 9.13, separately for each of the grouped clusters to determine how the different phosphatidylglycerol species affected the relationship between cell proliferation and phosphatidylglycerol concentration. The model used for this analysis of variance included phosphatidylglycerol species as a fixed effect that potentially interacted with In(concentration), and random coefficients for each culture/experiment. The number of experiments segregating into each cluster are indicated and *p<0.05 versus the response to egg phosphatidylglycerol liposomes.
[^3H]Thymidine Incorporation Assays: [^3H]Thymidine incorporation into DNA is measured as described (62).
The effect of providing phosphatidylglycerol directly to keratinocytes in the form of liposomes was examined, since direct provision of phosphatidylglycerol itself should also trigger early differentiation. […] The egg phosphatidylglycerol used in these experiments is composed primarily of the dioleoyl and dipalmitoyl species; therefore, that there is no effect of dipalmitoyl-PP on DNA synthesis was also determined. On the other hand, if phosphatidylglycerol liposomes are applied to keratinocytes with decreased proliferative capacity, presumably as the result of contact inhibition (and as indicated by reduced [3H]thymidine incorporation into DNA under control conditions), DNA synthesis is stimulated in a dose-dependent manner, with a half-maximal effect at a concentration of approximately 35_g/mL and a maximal stimulation at 100 μg/mL.

PLD = settings: acute stimulation, radiolabeled phosphatidylethanol production; cited from earlier work
[3] = tested on: transformed human corneal epithelial cells; assay: Scratch wound closure assay in corneal epithelial cells; format: cell-based; settings: 24 hours
Protocol: SV40-immortalized human corneal epithelial cells were cultured in a 1:1 mixture of defined keratinocyte serum free (dKSF) medium (Gibco) and minimum essential medium (Cellgro) until confluent. A pipet tip was then used to create a scratch wound in the confluent monolayer. Cells were rinsed with PBS to remove unattached and damaged cells and photographed under the microscope. The medium was replaced with dKSF containing the indicated additions (Ca corresponds to 1 mM Ca^2+). Cells were incubated for 24 hours and photographed again. Percent wound closure was calculated as the change in width of the scratch wound compared to the size of the initial wound and was expressed relative to the control (medium with no additions containing 90 μM Ca^2+); *p<0.05; **p<0.01 versus the control (n=3).
FIGS. 8A-8B show the effect of egg phosphatidylglycerol and dioleoylphosphatidylglycerol on wound closure in transformed human corneal epithelial cells. SV40-immortalized human corneal epithelial cells were cultured in a 1:1 mixture of defined keratinocyte serum free (dKSF) medium (Gibco) and minimum essential medium (Cellgro) until confluent. […] Percent wound closure was calculated as the change in width of the scratch wound compared to the size of the initial wound and was expressed relative to the control (medium with no additions); *p<0.05 versus the control (n=3). […]

keratinocytes [4] = settings: concentrations from 0.1 to 1%; cited from earlier work
[5] = tested on: SV40-immortalized human corneal epithelial cells; assay: [3H]Thymidine incorporation into DNA in corneal epithelial cells; format: cell-based; settings: 1 mM calcium versus control 90 μM, 24 hours
Protocol: [^3H]Thymidine incorporation into DNA was then determined. Values represent the means±SEM of 3 separate experiments performed in duplicate; *p<0.05, **p<0.01 versus the control value.
SV40-immortalized human corneal epithelial cells were cultured in a 1:1 mixture of defined keratinocyte serum free (dKSF) medium (Gibco) and minimum essential medium (Cellgro) until approximately 70% confluent. […] [^3H]Thymidine incorporation into DNA was then determined. Values represent the means±SEM of 4 separate experiments performed in duplicate; *p<0.01 versus the control value.
The cells are cultured in defined keratinocyte serum-free (dKSF) medium (Gibco) and passaged following trypsinization from the culture dish.

C=C1/C(=C\C=C2/CCC[C@]3(C)[C@@H]([C@H](C)CCCC(C)(C)O)CC[C@@H]23)C[C@@H](O)C[C@@H]1O [1,25-dihydroxyvitamin D3]
radiolabeled PG formation (keratinocytes [1]; 250 nM, 24 hours): a decrease

CCCCCCCC/C=C\CCCCCCCC(=O)O[C@H](COC(=O)CCCCCCCCCCCCCCC)COP(=O)(O)OCC(O)CO (stereo partly drawn) [Palmitoyl, oleoyl-PG, palmitoyloleoylphosphatidylglycerol]
promotion of proliferation in slowly dividing keratinocytes (keratinocytes [2]): especially effective proproliferative

CCCCCCCCCCCCCC(=O)O[C@@H]1[C@@H](C)[C@@]2(O)[C@@H](C=C(CO)C[C@]3(O)C(=O)C(C)=C[C@@H]23)[C@H]2C(C)(C)[C@]12OC(C)=O [TPA]
PLD activity (PLD): activates PLD | radiolabeled phosphatidylglycerol levels (keratinocytes [1]; acute stimulation): no increase

CCCCC/C=C\C/C=C\CCCCCCCC(=O)OC[C@H](COP(=O)(O)OCC(O)CO)OC(=O)CCCCCCC/C=C\C/C=C\CCCCC (stereo partly drawn) [dilinoleoyl-PG]
inhibition of proliferation in rapidly dividing keratinocytes (keratinocytes [2]): particularly effective at inhibiting proliferation

CCCCCCCC/C=C\CCCCCCCC(=O)OC[C@H](COP(=O)(O)OCC(O)CO)OC(=O)CCCCCCC/C=C\CCCCCCCC (stereo partly drawn) [dioleoylphosphatidylglycerol]
promotion of proliferation in slowly dividing keratinocytes (keratinocytes [2]): especially effective proproliferative | wound closure ([3]; 50 mg/ml liposomes, relative to control): significantly enhanced wound closure

CCCCCCCCCCCCCCCC(=O)OC[C@H](COP(=O)(O)OCCC)OC(=O)CCCCCCCCCCCCCCC [dipalmitoyl-PP]
effect of liposomes on DNA synthesis in highly proliferative keratinocytes (keratinocytes [2]; liposomes): no effect

OCC(O)CO [glycerol]
effect on DNA synthesis ([3H]thymidine incorporation) in keratinocytes (keratinocytes [4]): inhibited DNA synthesis | wound closure ([3]; 0.05% glycerol and calcium (1 mM Ca2+)): significantly enhanced wound closure | inhibition of DNA synthesis together with elevated extracellular calcium [5]: more efficiently inhibit DNA synthesis than either agent alone

OC[C@@H](O)[C@@H](O)[C@H](O)[C@@H](O)CO [sorbitol]
effect on DNA synthesis ([3H]thymidine incorporation) in keratinocytes (keratinocytes [4]): little or no effect

OC[C@@H](O)[C@H](O)[C@@H](O)CO [xylitol]
effect on DNA synthesis ([3H]thymidine incorporation) in keratinocytes (keratinocytes [4]): little or no effect

Palmitoyl, arachidonyl-PG
inhibition of proliferation in rapidly dividing keratinocytes (keratinocytes [2]): particularly effective at inhibiting proliferation

palmitoyl, linoleoyl-PG
inhibition of proliferation in rapidly dividing keratinocytes (keratinocytes [2]): particularly effective at inhibiting proliferation
